For assay [1], the target named is T1, Amine oxidase [flavin-containing] A (Homo sapiens, UniProt P21397).
T1 sequence (P21397 whole entry): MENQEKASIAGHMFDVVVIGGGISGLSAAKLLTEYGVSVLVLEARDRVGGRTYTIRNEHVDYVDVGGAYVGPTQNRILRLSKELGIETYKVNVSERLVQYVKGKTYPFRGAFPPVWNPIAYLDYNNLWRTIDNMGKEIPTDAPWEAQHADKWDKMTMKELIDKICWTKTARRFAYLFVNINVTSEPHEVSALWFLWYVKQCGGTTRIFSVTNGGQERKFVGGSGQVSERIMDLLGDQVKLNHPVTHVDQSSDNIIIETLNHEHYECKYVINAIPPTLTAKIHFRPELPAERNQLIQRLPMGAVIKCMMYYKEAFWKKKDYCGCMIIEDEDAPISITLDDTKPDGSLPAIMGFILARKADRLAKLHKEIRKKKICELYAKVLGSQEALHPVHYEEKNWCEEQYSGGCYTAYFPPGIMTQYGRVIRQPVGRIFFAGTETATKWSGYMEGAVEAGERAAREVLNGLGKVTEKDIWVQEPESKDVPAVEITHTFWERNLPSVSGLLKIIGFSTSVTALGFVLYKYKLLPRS
Description: Inhibition of recombinant human MAO-A expressed in Sf9 cells using p-tyramine as substrate preincubated for 15 mins followed by substrate addition for 60 mins by […] assay.

Assay [2] deals with T2, Amine oxidase [flavin-containing] B (Homo sapiens, UniProt P27338).
T2 sequence (P27338 whole entry): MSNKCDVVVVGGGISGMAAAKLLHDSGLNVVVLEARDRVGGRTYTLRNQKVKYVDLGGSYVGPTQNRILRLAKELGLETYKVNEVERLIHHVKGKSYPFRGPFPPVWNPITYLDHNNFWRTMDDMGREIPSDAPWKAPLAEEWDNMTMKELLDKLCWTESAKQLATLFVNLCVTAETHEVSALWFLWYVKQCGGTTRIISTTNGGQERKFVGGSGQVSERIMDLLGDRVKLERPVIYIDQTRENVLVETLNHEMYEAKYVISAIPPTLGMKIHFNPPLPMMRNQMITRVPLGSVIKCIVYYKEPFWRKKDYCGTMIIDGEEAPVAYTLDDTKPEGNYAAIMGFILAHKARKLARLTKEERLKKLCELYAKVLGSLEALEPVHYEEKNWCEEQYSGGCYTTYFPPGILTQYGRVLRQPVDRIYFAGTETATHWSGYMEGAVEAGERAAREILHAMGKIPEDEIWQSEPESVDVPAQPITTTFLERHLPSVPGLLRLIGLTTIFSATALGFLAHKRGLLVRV
Nature of the assay: Inhibition of recombinant human MAO-B expressed in Sf9 cells using benzylamine as substrate preincubated for 15 mins followed by substrate addition for 60 mins by Luminex assay. Type of assay: cell-based.

For assay [3], the species on record is Homo sapiens. Nature of the assay: Selectivity index, ratio of IC50 for recombinant human MAO-A to IC50 for recombinant human MAO-B.

The results in this text go back to ChEMBL document CHEMBL4699654, “Computational Fragment-Based Design Facilitates Discovery of Potent and Selective Monoamine Oxidase-B (MAO-B) Inhibitor” (J Med Chem, 2020).

A word on the IC50: it is the concentration needed to halve the response being measured. `C#CCN(Cc1ccc(OCc2cccc(F)c2)cc1F)[C@@H](C)C(N)=O`: the IC50 in assay [1] came to 8710 nM; in assay [2], 93 nM. Also, the Ratio IC50 in assay [3] came out at 94.

Take `CC1(C)C[C@@H](C(N)=O)N(Cc2ccc(OCc3cccc(F)c3)cc2)C1`: the values for the IC50 in assay [1] and in assay [2] were 17500 nM and 1420 nM, respectively. In addition, the Ratio IC50 in assay [3] stood at 12.

As for `Cc1cc(OCc2cccc(F)c2)ccc1CN1CC[C@H]1C(N)=O`, the IC50 in assay [1] was 8650 nM; in assay [2], 258 nM. Moreover, the Ratio IC50 in assay [3] stood at 34.

As for `C#CCN(C)C(=O)[C@H](C)NCc1ccc(OCc2cccc(F)c2)cc1`, the IC50 in assay [2] is greater than 10000 nM.

Consider `C#CCN(Cc1ccc(OCc2cccc(F)c2)cc1)[C@@H](C)C(N)=O`, for which the IC50 in assay [1] was 7790 nM; in assay [2] it was 530 nM. In addition, the Ratio IC50 in assay [3] was found to be 15.

Consider `NC(=O)[C@@H]1COCCN1Cc1ccc(OCc2cccc(F)c2)cc1F`, for which the IC50 in assay [1] is 57600 nM; in assay [2], 2870 nM. Further, the Ratio IC50 in assay [3] was found to be 20.

In the case of `NC(=O)[C@@H]1CCCN1Cc1ccc(OCc2cccc(F)c2)cc1`, the IC50 is 34200 nM in assay [1] and 204 nM in assay [2]. The Ratio IC50 in assay [3] was 168.

`NC(=O)C1CCN1Cc1ccc(OCc2cccc(F)c2)cc1` (racemic): the values for the IC50 in assay [1] and in assay [2] were 18000 nM and 46 nM, respectively. In addition, the Ratio IC50 in assay [3] is 391.

As for `C[C@H](NCc1ccc(OCc2cccc(F)c2)cc1F)C(N)=O`, the IC50 is greater than 10000 nM in assay [1] and 61 nM in assay [2]. Besides, in assay [3], the Ratio IC50 was greater than 163.

Regarding `NC(=O)[C@@H]1COCCN1Cc1ccc(OCc2cccc(F)c2)cc1`, in assay [2], the IC50 turned out to be 5410 nM.

For `NC(=O)[C@@H]1CCN1Cc1ccc(OCc2cccc(F)c2)cc1Cl`, the IC50 came out at 2130 nM in assay [1] and 35 nM in assay [2]. Moreover, in assay [3], the Ratio IC50 came out at 61.

With `NC(=O)[C@@H]1CC(F)(F)CN1Cc1ccc(OCc2cccc(F)c2)cc1`, the IC50 in assay [1] is 14500 nM; in assay [2], 1070 nM. Also, the Ratio IC50 in assay [3] was determined as 14.

Consider `C[C@H](NCc1ccc(OCc2cccc(F)c2)cc1)C(=O)NCCN1CCOCC1`, for which the 50% inhibitory concentration (IC50) in assay [2] was greater than 10000 nM.

`NC(=O)C1CN(Cc2ccc(OCc3cccc(F)c3)cc2)C1`: the IC50 was greater than 10000 nM in assay [1] and 1420 nM in assay [2]. For the same molecule, in assay [3], the Ratio IC50 was greater than 7.

For the molecule `Cc1cc(OCc2cccc(F)c2)ccc1CN[C@@H](C)C(N)=O`, the figures for the IC50 in assay [1] and in assay [2] were greater than 10000 nM and 69 nM, respectively. The Ratio IC50 in assay [3] was greater than 140.

Consider `C[C@H](NCc1ccc(OCc2cccc(F)c2)cc1Cl)C(N)=O`, for which the results for the IC50 in assay [1] and in assay [2] were 12000 nM and 28 nM, respectively. For the same molecule, the Ratio IC50 in assay [3] was 427.

In the case of `C[C@H](NCc1ccc(OCc2cccc(F)c2)cc1C1CC1)C(N)=O`, the IC50 in assay [1] worked out at 75200 nM; in assay [2], 1660 nM. Moreover, in assay [3], the Ratio IC50 was found to be 45.

Turning to `NC(=O)[C@@H]1CCN1Cc1ccc(OCc2cccc(F)c2)cc1F`, the IC50 stood at 18600 nM in assay [1] and 26 nM in assay [2]. Further, in assay [3], the Ratio IC50 was 715.

`C#CCN(Cc1ccc(OCc2cccc(F)c2)cc1C)[C@@H](C)C(N)=O`: the IC50 is 6400 nM in assay [1] and 320 nM in assay [2]. In assay [3], the Ratio IC50 was 20.

Take `NC(=O)[C@@H]1CCN1Cc1ccc(OCc2cccc(F)c2)cc1`: the IC50 is 26800 nM in assay [1] and 21 nM in assay [2]. Further, the Ratio IC50 in assay [3] was determined as 1280.

Turning to `C#CCN(Cc1ccc(OCc2cccc(F)c2)cc1Cl)[C@@H](C)C(N)=O`, the IC50 in assay [1] amounted to 5590 nM; in assay [2], 68 nM. Moreover, the Ratio IC50 in assay [3] is 82.

Turning to `CC1(C)C[C@@H](C(N)=O)N(Cc2ccc(OCc3cccc(F)c3)cc2F)C1`, the IC50 in assay [2] was 6350 nM.
